The record followed here is patent US12325694B2, “Co-crystalline form of efinaconazole and method for preparing the same” (Daebong Ls Co., Ltd., priority 2019, dated 2025).

This data set can be described thus: Stability test: HPLC purity after standing in solution at different temperatures. The format is physicochemical. Conditions: Solution (10%). As to the method: The stabilities of the co-crystals of efinaconazole to temperature and a solution were evaluated and compared by the following experimental method.

Consider `C=C1CCN([C@H](C)[C@](O)(Cn2cncn2)c2ccc(F)cc2F)CC1` [Efinaconazole, efinaconazole], for which the “HPLC (%)” value is 99.55% (65 °C (oven), after 1 week); 99.46% (65 °C (oven), after 2 weeks); 98.47% (65 °C (oven), after 4 weeks); 99.73% (room temp., after 1 week); 99.61% (room temp., after 2 weeks); 99.60% (room temp., after 4 weeks). Moreover, the “Related substances (%)” value reads like this: (65 °C (oven), after 1 week) 0.45%; (65 °C (oven), after 2 weeks) 0.54%; (65 °C (oven), after 4 weeks) 1.53%; (room temp., after 1 week) 0.27%; (room temp., after 2 weeks) 0.39%; (room temp., after 4 weeks) 0.40%.
